According to publication PMC6151488, “Structure, Absolute Configuration, and Antiproliferative Activity of Abietane and Icetexane Diterpenoids from Salvia ballotiflora” (Molecules : A Journal of Synthetic Chemistry and Natural …, 2017):
Values joined by “and” are separate entries in the source; they are usually repeats but may differ in a detail not shown here. Equal entries are not always repeated. Where two headings read alike, the source gives them in different places.

Columns and labels:
HeLa cells = system: HeLa cells; set-up: method as in doi:10.1016/j.bjp.2017.01.007; settings: similar activity when compared to cisplatin; cited from earlier work
[1] = system: COS-7 normal monkey kidney; test: Sulforhodamine B (SRB) cytotoxicity assay, COS-7 normal cell line; format: cell-based; settings: Primates, mean ± SD
Description: (§1) The natural products were screened in vitro against the following human cancer cell lines: human mammary adenocarcinoma (MCF-7), human chronic myelogenous leukemia (K562), human glioblastoma (U251), human lung adenocarcinoma (SKLU-1), human colon cancer (HCT-15), human prostate cancer (PC-3), healthy gingival human fibroblasts (FGH), and normal monkey kidney cell lines, which were supplied by the National Cancer Institute (NCI, USA) and American Type Culture Collection (ATTC). The human tumor cytotoxicity was determined using the protein-binding dye sulforhodamine B (SRB) in a microculture assay to measure cell growth, as described in the protocol established by the NCI [30]. The cell lines were cultured in RPMI-1640 medium supplemented with 10% fetal bovine serum, 2 mM L-glutamine, 10,000 units/mL penicillin G sodium, 10,000 μg/mL streptomycin sulfate, and 25 μg/mL amphotericin B (Gibco), and 1% non-essential amino acids (Gibco). They were maintained at 37 °C in a humidified atmosphere with 5% CO2. The viability of the cells used in the experiments exceeded 95%, as determined with trypan blue.
Cytotoxicity after treatment of the tumors cells and normal cells with the test compounds were determined using the protein-binding dye sulforhodamine B (SRB) in a microculture assay to measure cell growth. The cells were removed from the tissue culture flasks by treatment with trypsin, and diluted with fresh media. Of these cell suspensions, 100 μL containing 5000–10,000 cells per well were pipetted into 96-well microtiter plates (Costar) and the material was incubated at 37 °C for 24 h in a 5% CO2 atmosphere. Subsequently, 100 μL of a solution of the compound obtained by diluting the stocks were added to each well. The cultures were exposed to the compound for 48 h. After the incubation period, cells were fixed to the plastic substratum by the addition of 50 μL of cold 50% aqueous trichloroacetic acid. […] The plates were placed on a shaker for 10 min, and the absorption was determined at 515 nm using an ELISA plate reader (Bio-Tex Instruments).

[2] = system: K562 (human chronic myelogenous leukemia); test: Sulforhodamine B (SRB) cytotoxicity assay, K562; format: cell-based; settings: for IC50: SRB assay, 48 h exposure, mean ± SD, read-out: IC50 antiproliferative activity, K562; for inhibition at 50 µM / Antiproliferative activity (%), K562: primary screening at 50.0 μM, NC = No cytotoxic
Description: as §1
(§2) Cytotoxicity after treatment of the tumors cells and normal cells with the test compounds were determined using the protein-binding dye sulforhodamine B (SRB) in a microculture assay to measure cell growth. The cells were removed from the tissue culture flasks by treatment with trypsin, and diluted with fresh media. Of these cell suspensions, 100 μL containing 5000–10,000 cells per well were pipetted into 96-well microtiter plates (Costar) and the material was incubated at 37 °C for 24 h in a 5% CO2 atmosphere. Subsequently, 100 μL of a solution of the compound obtained by diluting the stocks were added to each well. The cultures were exposed to the compound for 48 h. After the incubation period, cells were fixed to the plastic substratum by the addition of 50 μL of cold 50% aqueous trichloroacetic acid. The plates were incubated at 4 °C for 1 h, washed with tap water, and air-dried. The trichloroacetic-acid-fixed cells were stained by the addition of 0.4% SRB. The free SRB solution was then removed by washing with 1% aqueous acetic-acid. The plates were air-dried, and the bound dye was dissolved by the addition of 10 mM unbuffered Tris base (100 μL). The plates were placed on a shaker for 10 min, and the absorption was determined at 515 nm using an ELISA plate reader (Bio-Tex Instruments).

[3] = system: PC-3 (human prostate cancer); test: Sulforhodamine B (SRB) cytotoxicity assay, PC-3; format: cell-based; settings: for inhibition at 50 µM: primary screening at 50.0 μM, mean n = 2, NC = No cytotoxic, read-out: Antiproliferative activity (%), PC-3
Description: as §1, §2

[4] = system: MCF-7 (human mammary adenocarcinoma); test: Sulforhodamine B (SRB) cytotoxicity assay, MCF-7; format: cell-based; settings: for Antiproliferative activity (%), MCF-7 / inhibition at 50 µM: mean n = 2, NC = No cytotoxic; for IC50 / inhibition at 50 µM: Homo sapiens, MCF7; for IC50: SRB assay, 48 h exposure, mean ± SD, read-out: IC50 antiproliferative activity, MCF-7; for inhibition at 50 µM: read-out: Antiproliferative activity (%), MCF-7
Description: as §1, §2

[5] = system: U251 (human glioblastoma); test: Sulforhodamine B (SRB) cytotoxicity assay, U251; format: cell-based; settings: for inhibition at 50 µM: primary screening at 50.0 μM, NC = No cytotoxic
Description: as §1, with “CO2.” for “CO2. The viability of the cells used in the experiments exceeded 95%, as determined with trypan blue.”
as §2

[6] = system: SKLU-1 (human lung adenocarcinoma); test: Sulforhodamine B (SRB) cytotoxicity assay, SKLU-1; format: cell-based; settings: for IC50: SRB assay, 48 h exposure, mean ± SD, read-out: IC50 antiproliferative activity, SKLU-1; for inhibition at 50 µM: primary screening at 50.0 μM, NC = No cytotoxic
Description: as §1, §2

[7] = system: HCT-15 (human colon cancer); test: Sulforhodamine B (SRB) cytotoxicity assay, HCT-15; format: cell-based; settings: for inhibition at 50 µM: primary screening at 50.0 μM, mean n = 2, NC = No cytotoxic, read-out: Antiproliferative activity (%), HCT-15
Description: as §1, §2

[8] = Scavenging activity on free radical DPPH; settings: at 100 μM; 30 min, 37 °C
Procedure: Free radical scavenging activity was measured using an adapted method of Mellors and Tappel. The test was carried out in 96-well microplates. A 50-μL aliquot of the solution of the test compound was mixed with 150 μL of an ethanol solution of DPPH (final concentration 100 μM). The mixture was incubated at 37 °C for 30 min, and the absorbance was then measured at 515 nm using a BioTek microplate reader SYNERGY HT. The percent inhibition was determined by comparison with a 100-μM DPPH ethanol blank solution.

TPA-induced ear edema = TPA-induced ear edema test in mice; format: in vivo; settings: mice CD-1, 1.0 μmol ear^-1 topical, 4 h after TPA, mean ± SEM; for Inhibition of Edema (%): NA = Non-active
Procedure: Male CD-1 mice weighing 25–30 g were maintained under standard laboratory conditions in the animal house (temperature 24 ± 2 °C) in a 12/12 h light/dark cycle, fed a laboratory diet and water ad libitum, following the Mexican official norm NOM-062-Z00-1999.
The TPA-induced ear edema assay in mice was performed as reported in reference. A solution of TPA (2.5 μg) in ethanol (10 μL) was applied topically to both faces (5 μL each ear) of the right ear of the mice, 10 min after solutions of the test substances in their respective solvents were applied (10 μL each face). The left ear received ethanol (10 μL) first, followed by 20 μL of the respective solvent. The mice were killed with CO2 four hours later. A 7-mm diameter plug was removed from each ear. The swelling was assessed as the difference in weight between the left and the right ear. Control animals received the correspondent solvent in each case. Edema inhibition (EI %) was calculated by the equation EI % = 100 − (B × 100/A), where A is the edema induced by TPA alone and B is the edema induced by TPA plus the sample. Indomethacin and celecoxib were used as reference compounds.

[9] = system: healthy gingival human fibroblasts (FGH); test: Sulforhodamine B (SRB) cytotoxicity assay, FGH primary culture; format: cell-based; settings: primary screening at 50.0 μM; mean n = 2; NC = No cytotoxic
Description: as §1, with “They were maintained at 37 °C in a humidified atmosphere with 5% CO2.” left out
(§3) Cytotoxicity after treatment of the tumors cells and normal cells with the test compounds were determined using the protein-binding dye sulforhodamine B (SRB) in a microculture assay to measure cell growth. […] The plates were placed on a shaker for 10 min, and the absorption was determined at 515 nm using an ELISA plate reader (Bio-Tex Instruments).

[10] = system: six human cancer cell lines (U251, PC-3, K562, HCT-15, MCF-7, SKLU-1) and FGH; test: SRB primary screening, whole panel (result in words); format: cell-based; settings: primary screening at 50 μM; cancer cell lines other than K562 and MCF-7
Procedure: The same biological activity was also recently described for icetexane-derivatives isolated from Premna and Amentotaxus species. […] These facts prompted us to assay diterpenoids 3, 4, 6–8 and 10 for antiproliferative activity using six human cancer cell lines (U251, PC-3, K562, HCT-15, MCF-7, and SKLU-1), and a primary culture of healthy gingival human fibroblasts (FGH) at 1.0 or 50.0 μM (when cytotoxicity at 50.0 μM results were too high). […] Overall, the antiproliferative activity determined for 7 was lower than that observed for 6.
as §1, §3

[11] = primary screening at 1.0 μM, mean n = 2
[12] = Homo sapiens, K562, mean n = 2, read-out: Antiproliferative activity (%), K562
[13] = Homo sapiens, U-251, mean n = 2, read-out: Antiproliferative activity (%), U251
[14] = Homo sapiens, SK-LU-1, mean n = 2, read-out: Antiproliferative activity (%), SKLU-1

| Compound | melting point | DPPH inhibitory effect (%) [8] | Edema (TPA-induced ear edema) | Inhibition of Edema (%) (TPA-induced ear edema) | IC50 ([2]; Homo sapiens, K562) | inhibition at 50 µM [2, 12] | Antiproliferative activity (%), K562 ([2]; mean n = 2) | inhibition at 50 µM [3] | IC50 [4] | inhibition at 50 µM ([4]; primary screening at 50.0 μM) | Antiproliferative activity (%), MCF-7 ([4]; primary screening at 50.0 μM) | inhibition at 50 µM [5, 13] | Antiproliferative activity (%), FGH [9] | inhibition at 50 µM [6, 14] | inhibition at 50 µM [7] | further results |
| --- | --- | --- | --- | --- | --- | --- | --- | --- | --- | --- | --- | --- | --- | --- | --- | --- |
| 19-deoxyisoicetexone | – | – | – | – | – | – | – | – | – | – | – | – | – | – | – | IC50 (HeLa cells): 9.36 µM |
| CC(=O)OC1CC2C3(CCCC2(C)C(=O)O3)CC2=C1C(=O)C(C(C)C)=C(O)C2=O (stereo not drawn) [Compound 3, 7α-Acetoxy-6,7-dihydroicetexone] | 110 to 115 °C | 6.1% | 9.87 ± 0.44 mg | 37.4 ± 2.8% and 37.42 ± 2.77 % | – | – | – | – | – | – | – | – | – | – | – | IC50 [1]: 1.62 ± 0.1 µM; inhibition at 1 µM ([2]; Homo sapiens, K562, primary screening at 1.0 μM, mean n = 2, read-out: Antiproliferative activity (%), K562): 48.6%; inhibition at 1 µM ([3]; primary screening at 1.0 μM, mean n = 2, read-out: Antiproliferative activity (%), PC-3): 34.2%; Antiproliferative activity (%), MCF-7 ([4]; primary screening at 1.0 μM): non-toxic; inhibition at 1 µM ([5]; Homo sapiens, U-251, primary screening at 1.0 μM, mean n = 2, read-out: Antiproliferative activity (%), U251): 65.4%; Antiproliferative activity (%), U251 [5, 11]: moderately active; SI (selectivity index), U251 ([5]; quotient of IC50 of COS-7 / IC50 of U251): 1.2; IC50 ([6]; Homo sapiens, SK-LU-1, 48 h): 0.46 ± 0.05 µM; inhibition at 1 µM ([6]; Homo sapiens, SK-LU-1, primary screening at 1.0 μM, mean n = 2, read-out: Antiproliferative activity (%), SKLU-1): 64.5%; IC50 [6]: 0.82 ± 0.06 µM; Antiproliferative activity (%), SKLU-1 [6, 11]: moderately active; SI (selectivity index), SKLU-1 ([6]; quotient of IC50 of COS-7 / IC50 of SKLU-1): 2.0; inhibition at 1 µM ([7]; primary screening at 1.0 μM, mean n = 2, read-out: Antiproliferative activity (%), HCT-15): 33.4% |
| CC(C)C1=C(O)C(=O)C2=C(CC3OC(=O)C4(C)CCC=C(C2)C34)C1=O (stereo not shown) [Compound 7, 7,20-Dihydroanastomosine] | 223 to 227 °C | 6.6% | 15.50 ± 0.76 mg | non-active | 31.2 ± 1.1 µM | 63.2% | moderate toxicity | 17.8% | 33.2 ± 1.2 µM | 62.6% | moderate toxicity | 10.1% | non-toxic | 46.5% | 26.8% | – |
| CC(C)C1=C(O)C(=O)C2=C(C=C[C@@H]3[C@]4(CCC[C@]3(C)C(=O)O4)C2)C1=O [Compound 8, icetexone] | – | 3.7% | – | – | 17 ± 1.4 µM | 83.1% | significant antiproliferative activity | 39.6% | 28.7 ± 1.6 µM | 71.6% | significant antiproliferative activity | 35.8% | lacked of toxicity | 52.9% | 29% | Activity against all other tested cancer cell lines (in words) [10]: moderately active |
